Source: patent US7722863B2, “Use of granzyme b as an hsp70/hsp70 peptide dependent inducer of apoptosis in tumor cells” (Multimmune GmbH, priority 2002, dated 2010)

What was measured:
Colo− tumor cells = assay: Granzyme B ELISPOT, NK cells co-incubated with tumor cells; assay type: cell-based, human; conditions: TKD-stimulated NK cells (NK d3), 4 h coincubation, E:T 5:1, three independent experiments
Protocol: (§1) Granzyme B release was compared in unstimualted NK cells (NK d0) and TKD stimulated NK cells (NK d3) after a 4 h co-incubation period with tumor cell lines CX+/CX− and Colo+/Colo−, at different effector to target cell ratios (E:T) ranging from 20:1 to 2:1. For detection a Granzyme B ELISPOT kit (#552572, BD, Heidelberg, Germany) was used. Briefly, 96-well ELISPOT plates (MAIPN45, Millipore) were coated overnight at 4° C. with capture antibody, blocked with RPMI-1640 culture medium containing 10% FCS and incubated with tumor and effector cells for 4 h at 37° C., as specified before. After washing in deionized water and wash buffers A and B, biotinylated anti-granzyme B antibody was added (2 μg/ml) for 2 h. After another two washing steps granzyme B was visualized by the addition of freshly prepared avidin-horseradish peroxidase (2 h) and substrate solution (25 min incubation period). Spots were counted automatically using ImmunoSpot Series I Analyzer. ^51Cr Release Assay and Inhibition Assay
(§2) Cell kill of CX+/CX− and Colo+/Colo− tumor cells following contact with freshly isolated, unstimulated (NK d0) or Hsp70-peptide TKD stimulated NK cells (NK d3) was quantitated in a 12 h ^51Cr release assay (FIG. 4B). […] Technically, it is not possible to quantify the absolute amount of granzyme B that is transferred from NK cells into tumor cells by cell-to-cell contact. However, relative values of granzyme B release could be determined by ELISPOT analysis. Therefore, a comparison of the cytolytic response of freshly isolated, unstimulated (NK d0) and TKD-stimulated NK cells (NK d3) against CX+/CX− and Colo+/Colo− tumor cells was performed concomitantly with the definition of the granzyme B release. Irrespectively of the tumor cell line and the E:T cell ratio, co-incubation of tumor cells with unstimulated NK cells (NK d0), always results in very low granzyme B release; the number of spots was always less than 20. […] At an E:T ratio of 5:1, the number of granzyme B spots, as determined in three independent experiments, was as follows: CX+ 260±20, CX− 165±6; Colo+ 137±55; Colo− 66±8. […] It was hypothesized that interaction of granzyme B with membrane-bound Hsp70-peptide TKD is key for its uptake into tumor cells and for the induction of apoptosis. When NK cells were removed by washing with PBS and the tumor cells were stained with DAPI. […] Identical results were obtained with Annexin V-FITC staining (data not shown).

CX+ tumor cells = assay: as above; assay type: cell-based, human; conditions: TKD-stimulated NK cells (NK d3), 4 h coincubation, E:T 5:1, three independent experiments
Protocol: as §1, §2

Colo+ tumor cells = assay: as above; assay type: cell-based, human; conditions: TKD-stimulated NK cells (NK d3), 4 h coincubation, E:T 5:1, three independent experiments
Protocol: as §1, §2

CX− tumor cells = assay: as above; assay type: cell-based, human; conditions: TKD-stimulated NK cells (NK d3), 4 h coincubation, E:T 5:1, three independent experiments
Protocol: as §1, §2

[1] = system: Hsp70 membrane-positive tumor target cells; conditions: Hsp70-peptide 0.2-2.0 μg/ml; cited from earlier work
[2] = system: Hsp70 membrane-positive CX+ cells; assay: Microscopy of tumor cells co-incubated with Hsp70-peptide TKD stimulated NK cells; assay type: cell-based, human
Protocol: (§3) FIG. 4A: Light microscopy (magnification 20×) of Hsp70 membrane-positive CX+ and Hsp70 membrane-negative CX− cell colonies, either untreated (control) or following a 12 h co-incubation with Hsp70-peptide TKD stimulated NK cells (+NK). The effector to target cell ratio (E:T) was 20:1.
(§4) The physiological role of our findings was tested in functional assays using naive and Hsp70 stimulated human NK cells. […] Although Hsp70 acts as a tumor-selective recognition structure for NK cells, as determined by antibody blocking studies (Multhoff et. al. (1997) J. Immunol. 158,4341; Multhoff et. al. (1995) Blood 86,1374), the NK-cytotoxic mechanism remains unclear. To elucidate the possible mechanism, NK cells were incubated with Hsp70-peptide TKD ([…]) for 3 days. […] In contrast, granzyme B expression was not increased in CD3 positive T cells treated with Hsp70-peptide TKD. Light microscopical analysis of Hsp70-peptide activated NK cells co-incubated with Hsp70 membrane-positive CX+ and Hsp70 membrane-negative CX− cells is illustrated in FIG. 4A. Hsp70 membrane-positive CX+ and Hsp70 membrane-negative CX− tumor cells (0.1×10^6 cells/ml) were cultured in duplicates in 24 well plates for 2 days. […] CX+ and CX− tumor cells in the upper panel were cultured in the absence of NK cells; tumor cells in the lower panel were co-cultured for 12 h with NK cells that had been stimulated with Hsp70-peptide TKD (2 μg/ml, 3 days). Nearly 100% of the CX+ cell colonies were found in clusters with NK cells and viability of CX+ tumor cells appears to be reduced. […] Cell viability of CX− tumor cells following contact with NK cells appears to be less affected, as compared to that of CX+ tumor cells. The inserts in the lower right corner of each graph illustrates a 2.5× magnification of one representative cell colony.
(§5) Cell kill of CX+/CX− and Colo+/Colo− tumor cells following contact with freshly isolated, unstimulated (NK d0) or Hsp70-peptide TKD stimulated NK cells (NK d3) was quantitated in a 12 h ^51Cr release assay (FIG. 4B). […] Technically, it is not possible to quantify the absolute amount of granzyme B that is transferred from NK cells into tumor cells by cell-to-cell contact. However, relative values of granzyme B release could be determined by ELISPOT analysis. Therefore, a comparison of the cytolytic response of freshly isolated, unstimulated (NK d0) and TKD-stimulated NK cells (NK d3) against CX+/CX− and Colo+/Colo− tumor cells was performed concomitantly with the definition of the granzyme B release. […] At an E:T ratio of 5:1, the number of granzyme B spots, as determined in three independent experiments, was as follows: CX+ 260±20, CX− 165±6; Colo+ 137±55; Colo− 66±8. […]

[3] = system: Hsp70 membrane-negative CX− cells; assay: as above; assay type: cell-based, human
Protocol: as §3, §4, §5

CX− tumor target cells = assay: 12 h 51Cr release assay, NK cell mediated cytotoxicity; assay type: cell-based, human; conditions: TKD 3 days
Protocol: (§6) The NK cell line YT was cultured at cell densities ranging from 0.1-0.5×10^6 cells/ml RPMI-1640 medium (Life Technologies, Eggenstein, Germany) containing 10% heat inactivated fetal calf serum (FCS, Life Technologies, Eggenstein, Germany) supplemented with 6 mM L-glutamine, and antibiotics (100 IU/ml penicillin and 100 μg/ml streptomycin; Life Technologies). Transient plastic adherent NK cells were derived from buffy coats of healthy human volunteers. Ficoll separated peripheral blood mononuclear cells (PBMC) were cultured in rIL-2 (100 IU/ml, Chiron, Frankfurt, Germany) for 12 h. Following adherence selection of monocyte depleted peripheral blood lymphocytes according to a modified method of Vujanovic (Vujanovic et. al. (1993) Cell. Immunol. 151, 133), cells were cultivated in RPMI-1640 medium supplemented with Hsp70-peptide TKD (2 μg/ml) for 3 days. The human tumor sublines CX+/CX− and Colo+/Colo− were derived by cell sorting of CX-2 colon (Hsp70 positive: 60%) and Colo357 pancreas (Hsp70 positive: 70%) carcinoma cell lines using the Hsp70 specific monoclonal antibody C92F3B1, according to a previously described protocol (Multhoff et. al. (1997) J. Immunol. 158, 4341).
(§7) NK cell mediated cytotoxicity was measured using a 12 h ^51Cr radioisotope assay. As target cells the colon carcinoma sublines CX+ and CX− were used. For blocking studies the mAb C92F3B1 and an isotype matched control antibody (IgG1) were used at a final concentration of 5 μg/1×10^6 cells. Following incubation of CX+ and CX− target cells with the antibodies for 30 min at 4° C., the cells were labeled with ^51Cr and the cytotoxicity assay was performed as described by MacDonald (MacDonald et. al. (1974) J. Exp. Med. 140,718). The percentage of specific lysis was calculated as: [(experimental release−spontaneous release)/(maximal release−spontaneous release)]×100.
as §5

Colo+ tumor target cells = assay: as above; assay type: cell-based, human; conditions: E:T ratios 2:1 to 20:1; TKD 3 days
Protocol: as §6, §7, §5

CX+ tumor target cells = assay: as above; assay type: cell-based, human; conditions: E:T ratios 2:1 to 20:1; TKD 3 days
Protocol: as §6, §7, §5

Colo− tumor target cells = assay: as above; assay type: cell-based, human; conditions: TKD 3 days
Protocol: as §6, §7, §5

CD3 positive T cells = assay: Intracellular granzyme B expression after treatment with Hsp70-peptide TKD; assay type: cell-based, human; conditions: treated with Hsp70-peptide TKD
Protocol: The physiological role of our findings was tested in functional assays using naive and Hsp70 stimulated human NK cells. […] Although Hsp70 acts as a tumor-selective recognition structure for NK cells, as determined by antibody blocking studies (Multhoff et. al. (1997) J. Immunol. 158,4341; Multhoff et. al. (1995) Blood 86,1374), the NK-cytotoxic mechanism remains unclear. To elucidate the possible mechanism, NK cells were incubated with Hsp70-peptide TKD ([…]) for 3 days. […] In contrast, granzyme B expression was not increased in CD3 positive T cells treated with Hsp70-peptide TKD. Light microscopical analysis of Hsp70-peptide activated NK cells co-incubated with Hsp70 membrane-positive CX+ and Hsp70 membrane-negative CX− cells is illustrated in FIG. 4A. Hsp70 membrane-positive CX+ and Hsp70 membrane-negative CX− tumor cells (0.1×10^6 cells/ml) were cultured in duplicates in 24 well plates for 2 days. […] CX+ and CX− tumor cells in the upper panel were cultured in the absence of NK cells; tumor cells in the lower panel were co-cultured for 12 h with NK cells that had been stimulated with Hsp70-peptide TKD (2 μg/ml, 3 days). Nearly 100% of the CX+ cell colonies were found in clusters with NK cells and viability of CX+ tumor cells appears to be reduced. […]

NK cells = assay: Intracellular granzyme B expression after stimulation with Hsp70-peptide TKD; assay type: cell-based, human
Protocol: The NK cell line YT was cultured at cell densities ranging from 0.1-0.5×10^6 cells/ml RPMI-1640 medium (Life Technologies, Eggenstein, Germany) containing 10% heat inactivated fetal calf serum (FCS, Life Technologies, Eggenstein, Germany) supplemented with 6 mM L-glutamine, and antibiotics (100 IU/ml penicillin and 100 μg/ml streptomycin; Life Technologies). Transient plastic adherent NK cells were derived from buffy coats of healthy human volunteers. Ficoll separated peripheral blood mononuclear cells (PBMC) were cultured in rIL-2 (100 IU/ml, Chiron, Frankfurt, Germany) for 12 h. […]
Cells (0.5×10^6) were fixed in paraformaldehyde (1% PFA in PBS) for 10 min, and permeabilized in PBS containing BSA (0.5%), NaN3 (0.1%), and saponin (0.1%). […] Following washing cells were analysed on a FACSCalibur instrument (Becton Dickinson, Heidelberg, Germany).
The physiological role of our findings was tested in functional assays using naive and Hsp70 stimulated human NK cells. […] Although Hsp70 acts as a tumor-selective recognition structure for NK cells, as determined by antibody blocking studies (Multhoff et. al. (1997) J. Immunol. 158,4341; Multhoff et. al. (1995) Blood 86,1374), the NK-cytotoxic mechanism remains unclear. […]

[4] = 12 h co-culture with NK cells stimulated with TKD 2 μg/ml, 3 days, E:T 20:1

TKDNNLLGRFELSG (listed as Homo sapiens) [Hsp70-peptide TKD]
number of granzyme B spots (Colo− tumor cells): 66±8
number of granzyme B spots (CX+ tumor cells): 260±20
number of granzyme B spots (Colo+ tumor cells): 137±55
number of granzyme B spots (CX− tumor cells): 165±6
cytolytic activity of NK cells against Hsp70 membrane-positive tumor target cells [1]: increased cytolytic activity
CX+ cell colonies found in clusters with NK cells [2, 4]: ~100%
DNA fragmentation (DAPI) in CX+ cells after co-incubation with TKD activated NK cells ([2]; NK cells removed by washing): showed DNA fragmentation
CX− tumor cells in clusters with NK cells [3, 4]: not found in clusters
DNA fragmentation (DAPI) in CX− cells after co-incubation with TKD activated NK cells ([3]; NK cells removed by washing): not
lysis of CX− tumor cells, NK d3 versus NK d0 (CX− tumor target cells): remained unaffected
lysis of Colo+ cells, TKD stimulated (NK d3) versus naive NK cells (NK d0) (Colo+ tumor target cells): 2.0 fold
lysis of CX+ cells, TKD stimulated (NK d3) versus naive NK cells (NK d0) (CX+ tumor target cells): 1.5 fold
lysis of Colo− tumor cells, NK d3 versus NK d0 (Colo− tumor target cells): remained unaffected
granzyme B expression in CD3 positive T cells (CD3 positive T cells): not increased
intracellular granzyme B levels, TKD stimulated NK cells (NK d3) versus naive NK cells (NK d0) (NK cells; Hsp70-peptide TKD 2 μg/ml, 3 days): 1.4 fold
intracellular granzyme B expression in NK cells (NK cells; Hsp70-peptide TKD for 3 days, 3 independent experiments): significantly elevated
